Test: ESI positive response factor (isotope-corrected peak area per molar concentration) in SFC/ESI/HRMS (area units per M); higher = higher ionization efficiency
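Note: standards in acetonitrile/water run in triplicate on a zwitterionic HILIC column, CO2–methanol gradient containing 20 mmol/L ammonium acetate, postcolumn makeup flow, Orbitrap full-scan detection.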

| Compound | ESI positive response factor (0.0175 µM) | ESI positive response factor (0.035 µM) | ESI positive response factor (0.0875 µM) | ESI positive response factor (0.175 µM) | ESI positive response factor (0.35 µM) | ESI positive response factor (0.875 µM) | ESI positive response factor (1.75 µM) | ESI positive response factor (0.244 µM) | ESI positive response factor (0.61 µM) | ESI positive response factor (1.22 µM) | ESI positive response factor (0.122 µM) |
| --- | --- | --- | --- | --- | --- | --- | --- | --- | --- | --- | --- |
| CCC[C@@H]1O[C@@H]2C[C@H]3[C@@H]4CCC5=CC(=O)C=C[C@]5(C)[C@H]4[C@@H](O)C[C@]3(C)[C@]2(C(=O)CO)O1 [Budesonid] | 1.27e+17 | 1.3e+17 | 1.25e+17 | 1.16e+17 | 1.25e+17 | – | – | – | – | – | – |
| COc1ccc(O)c(C(C)(C)C)c1 [Butylated hydroxyanisole] | – | – | 3.78e+15 | 2.82e+15 | 3.32e+15 | 3.01e+15 | – | – | – | – | – |
| Cn1c(=O)c2c(ncn2C)n(C)c1=O [Caffeine] | 2.34e+17 | 2.22e+17 | 2.03e+17 | – | – | – | – | – | – | – | – |
| CCOc1nc2cccc(C(=O)O)c2n1Cc1ccc(-c2ccccc2-c2nnn[nH]2)cc1 [Candesartan] | 5.17e+16 | 8.14e+16 | 8.12e+16 | 8.2e+16 | 8.92e+16 | 9.01e+16 | 8.46e+16 | – | – | – | – |
| CCNC(=O)[C@H](C)OC(=O)Nc1ccccc1 [Carbetamid] | 5.72e+16 | 7.07e+16 | 6.85e+16 | 6.12e+16 | 6.45e+16 | – | – | – | – | – | – |
| CNC(=O)Oc1cccc2c1OC(C)(C)C2 [Carbofuran] | 8.85e+16 | 8.12e+16 | 8.68e+16 | 7.6e+16 | 9.93e+16 | – | – | – | – | – | – |
| CC1=C(C(=O)Nc2ccccc2)SCCO1 [Carboxin] | 7.6e+16 | 1.1e+17 | 1.07e+17 | 9.93e+16 | 1.1e+17 | – | – | – | – | – | – |
| CON(C)C(=O)Nc1ccc(Br)c(Cl)c1 [Chlorbromuron] | – | 4.74e+16 | 4.82e+16 | 4.62e+16 | 5.21e+16 | – | – | – | – | – | – |
| CCOP(=O)(OCC)OC(=CCl)c1ccc(Cl)cc1Cl [Chlorfenvinphos] | 2.81e+17 | 3.28e+17 | 3.25e+17 | 2.98e+17 | 4.34e+17 | – | – | – | – | – | – |
| Nc1cnn(-c2ccccc2)c(=O)c1Cl [Chloridazon] | 7.49e+16 | 1.01e+17 | 8.99e+16 | – | – | – | – | – | – | – | – |
| C[N+](C)(C)CCCl [Chlormequate] | 1.55e+17 | 1.26e+17 | 1.95e+17 | 1.76e+17 | 1.85e+17 | – | – | – | – | – | – |
| COc1nc(C)nc(NC(=O)NS(=O)(=O)c2ccccc2Cl)n1 [Chlorsulfuron] | – | 4.22e+16 | 4.88e+16 | 5.05e+16 | 5.61e+16 | 5.75e+16 | 5.77e+16 | – | – | – | – |
| Cc1ccc(NC(=O)N(C)C)cc1Cl [Chlortoluron] | 1.29e+17 | 1.32e+17 | 1.48e+17 | 1.28e+17 | 1.4e+17 | – | – | – | – | – | – |
| CN=C(NC#N)NCCSCc1nc[nH]c1C [Cimetidine] | 6.5e+16 | 9.26e+16 | 8.81e+16 | 8.23e+16 | 9.32e+16 | 8.86e+16 | – | – | – | – | – |
| Nc1ccnc(=O)[nH]1 [Cytosine] | – | – | – | – | 2.81e+15 | 3.21e+15 | 3.05e+15 | – | – | – | – |
| CCN(CC)C(=O)c1cccc(C)c1 [DEET] | – | – | – | – | 4.74e+17 | 4.86e+17 | – | – | – | – | – |
| CN(C)N/N=C1/N=CN=C1C(N)=O [Dacarbazine] | – | – | 2.45e+15 | 5.22e+15 | – | – | – | – | – | – | – |
| Nc1ccc(S(=O)(=O)c2ccc(N)cc2)cc1 [Dapson] | 6.07e+16 | 8.29e+16 | 8.16e+16 | – | – | – | – | – | – | – | – |
| CCOP(=S)(OCC)Oc1cc(C)nc(C(C)C)n1 [Diazinon] | 3.13e+16 | 5.67e+16 | 3.71e+16 | 5.13e+16 | – | – | – | – | – | – | – |

| Compound | ESI positive response factor (0.0175 µM) | ESI positive response factor (0.035 µM) | ESI positive response factor (0.0875 µM) | ESI positive response factor (0.175 µM) | ESI positive response factor (0.35 µM) | ESI positive response factor (0.875 µM) | ESI positive response factor (1.75 µM) | ESI positive response factor (0.244 µM) | ESI positive response factor (0.61 µM) | ESI positive response factor (1.22 µM) | ESI positive response factor (0.122 µM) |
| --- | --- | --- | --- | --- | --- | --- | --- | --- | --- | --- | --- |
| O=C(O)Cc1ccccc1Nc1c(Cl)cccc1Cl [Diclofenac] | – | – | – | – | 3.71e+15 | 5.3e+15 | 5.19e+15 | – | – | – | – |
| N#CN=C(N)N [Dicyandiamide] | – | 3.07e+15 | 4.26e+15 | 3.9e+15 | 4.96e+15 | 6.05e+15 | 6.06e+15 | – | – | – | – |
| CNC(=O)CSP(=S)(OC)OC [Dimethoate] | 5.46e+16 | 5.3e+16 | 5.84e+16 | 5.04e+16 | 5.56e+16 | – | – | – | – | – | – |
| COC(=O)CCCCCCCCC(=O)OC [Dimethylsebacate] | 7.67e+16 | 7.64e+16 | 6.02e+16 | 5.72e+16 | – | – | – | – | – | – | – |
| CN(C)C(=O)C(c1ccccc1)c1ccccc1 [Diphenamid] | 1.12e+17 | 1.02e+17 | 1.09e+17 | 9.79e+16 | 1.13e+17 | – | – | – | – | – | – |
| CN(C)CCOC(c1ccccc1)c1ccccc1 [Diphenhydramine] | 1.59e+17 | 2.23e+17 | 2.16e+17 | 2.35e+17 | 2.4e+17 | 2.25e+17 | – | – | – | – | – |
| CCN[C@H]1C[C@H](C)S(=O)(=O)c2sc(S(N)(=O)=O)cc21 [Dorzolamide] | – | 8.5e+15 | 9.06e+15 | 1.22e+16 | 1.22e+16 | 1.24e+16 | 1.24e+16 | – | – | – | – |
| CCOC(=O)[C@H](CCc1ccccc1)N[C@@H](C)C(=O)N1CCC[C@H]1C(=O)O [Enalapril] | 2.87e+17 | 3.29e+17 | 3.2e+17 | 3.2e+17 | – | – | – | – | – | – | – |
| CCOC(=O)CN1CCCC1=O [Ethyl 2-oxo-1-pyrrolidineacetate] | 9.45e+16 | 9.95e+16 | 9.42e+16 | – | – | – | – | – | – | – | – |
| NC(N)=Nc1nc(CSCCC(N)=NS(N)(=O)=O)cs1 [Famotidin] | – | – | 2.45e+16 | 3.25e+16 | 3.73e+16 | 3.76e+16 | 3.72e+16 | – | – | – | – |
| CCOC(=O)NCCOc1ccc(Oc2ccccc2)cc1 [Fenoxycarb] | 5.41e+17 | 5.89e+17 | 5.34e+17 | – | – | – | – | – | – | – | – |
| CNCCC(Oc1ccc(C(F)(F)F)cc1)c1ccccc1 (stereo unspecified) [Fluoxetine] | 9.5e+16 | 1.16e+17 | 1.1e+17 | 1.05e+17 | – | – | – | – | – | – | – |
| NCC1(CC(=O)O)CCCCC1 [Gabapentin] | – | – | – | – | – | – | – | 2.98e+16 | 2.83e+16 | 3.28e+16 | – |
| NC(=O)N=C(N)N [Guanylurea] | – | – | – | – | – | – | – | 2.7e+15 | 2.53e+15 | 2.64e+15 | – |
| CC(Oc1ccc(Oc2ncc(C(F)(F)F)cc2Cl)cc1)C(=O)O (stereo unspecified) [Haloxyfop] | – | – | – | – | – | – | – | 5.62e+15 | 5.23e+15 | 4.69e+15 | – |
| COc1ccc2c(c1)c(CC(=O)O)c(C)n2C(=O)c1ccc(Cl)cc1 [Indomethacin] | – | – | – | – | – | – | – | 1.53e+16 | 1.99e+16 | – | 1.45e+16 |
| COCC(=O)Nc1c(I)c(C(=O)NCC(O)CO)c(I)c(C(=O)N(C)CC(O)CO)c1I (stereo unspecified) [Iopromide] | – | – | – | – | – | – | – | – | 1.19e+15 | 1.27e+15 | – |
| O=C(O)[C@@H]1C[C@@H](O)CN1 [L-Hydroxyprolin] | – | – | – | – | – | – | – | 3.07e+15 | 2.85e+15 | – | 2.76e+15 |
| N[C@@H](Cc1ccccc1)C(=O)O [L-Phenylalanin] | – | – | – | – | – | – | – | 1.44e+16 | 1.27e+16 | – | 1.51e+16 |

Source: the supplement of paper PMC10326909
